Results reported in patent US11464770B2, “Anticancer pharmaceutical composition” (NATIONAL CANCER CENTER, priority 2016, dated 2022).

How the values were obtained:
zebrafish = assay: Cardiotoxicity experiment using zebrafish (heart rate, lethality); format: in vivo; settings: 5 uM, n = 10
[1] = tested on: MBT-2: Mouse bladder transitional cell carcinoma; assay: Cell based assay, cytotoxicity in MBT-2 cells; settings: 72 hours
Protocol: (§1) Commercially available bladder cancer, prostate cancer, lung cancer, breast cancer, blood cancer, pancreatic cancer, colorectal cancer, brain cancer, neuroblastoma, melanoma, liver cancer, cervical carcinoma, ovarian cancer, renal cancer, and papilloma cell lines were each treated with trypsin-EDTA and cultured, followed by being seeded in each well of a 96 well plate. After 24 hours of treatment at constant temperature, the respective cells were treated with the candidate compound so that a final concentration became 0 to 2 μM. The treated cells were additionally cultured for 72 hours, and cell viability was measured by using an ATP detection method (CellTiter-Glo® Luminescent Cell Viability Assay, Promega).

[2] = tested on: human prostate cancer cell line (DU145); assay: Tumor growth inhibition in animal model using DU145; format: in vivo; settings: intraperitoneally administered twice a week, DU145 animal model (FIG. 2)
[3] = tested on: UM-UC-3: human urinary bladder transitional cell carcinoma; assay: Cell based assay, cytotoxicity in UM-UC-3 cells; settings: UMUC3, 72 hours
Protocol: as §1

[4] = tested on: KU-19-19: Bladder carcinoma; assay: Cell based assay, cytotoxicity in KU19-19 cells; settings: Homo sapiens, 72 hours
Protocol: as §1

| SMILES | Changes (%) in heart rate (zebrafish; mean) | Lethality (zebrafish) | IC50 [1] | Effect of inhibiting tumor growth [2] | IC50 [3] | IC50 [4] |
| --- | --- | --- | --- | --- | --- | --- |
| CC(=O)c1c([S+]([O-])Cc2ccc([N+](=O)[O-])cc2)[nH]c2c(Br)ccc(Cl)c2c1=O (stereo not drawn) [Compound 33, 3-acetyl-8-bromo-5-chloro-2-((4-nitrobenzyl)sulfinyl)quinolin-4(1H)-one] | 97.3% | 0/10 |  |  |  |  |
| CC(=O)c1c([S+]([O-])Cc2ccc(SC(F)(F)F)cc2)[nH]c2c(Br)ccc(Cl)c2c1=O (stereo not drawn) [Compound 56, 3-acetyl-8-bromo-5-chloro-2-((4-((trifluoromethyl)thio)benzyl)sulfinyl)quinolin-4(1H)-one] |  |  | 1.18 µM | effect of inhibiting tumor growth | 1.25 µM | 0.9 µM |
